The test system of data set [1] is A1 adenosine receptors. Conditions: A1 versus A2A adenosine receptors; cited from earlier work.
The subject of data set [2] is dog with critical LAD stenosis. On the procedure:
Following a 15 minute baseline stabilization period, the LAD snare occluder was tightened to produce a critical LAD stenosis. A critical stenosis was defined as one that produced no change in resting coronary flow, however coronary flow reserve was completely abolished. […] Five minutes later, an in vivo image was acquired and the animal was then immediately killed to prevent ^99m Tc-N-NOET redistribution. The heart was removed and sliced into 4 rings from apex to base. The heart slices were placed on a cardboard sheet, covered with plastic wrap, and ex vivo imaging of the heart slices was performed directly on the collimator of a conventional planar gamma camera. Image background subtraction was performed on the in vivo image using standard nuclear medicine software developed for this purpose. Defect magnitude was expressed as an LAD/LCX count ratio between counts in LAD and LCX regions of interest drawn on the in vivo and ex vivo heart images.

For data set [3], the system named is adult mongrel dogs. Conditions: for LCX coronary flow: baseline 42 ml/min.
The test system of data set [4] is patients. Conditions: 9,256 patients; cited from earlier work.
In data set [5] the test system is patients. Conditions: 3,911 patients; cited from earlier work.
The test system of data set [6] is patients. Conditions: 3,715 patients; cited from earlier work.

Where two headings read alike, the source gives them in different places.

As to `Nc1nc(Cl)nc2c1ncn2[C@@H]1O[C@H](CO)[C@@H](O)[C@H]1O` [Cl-Ado, 2-chloroadenosine], the “receptor subtype preference as activator” value in data set [1] is “more potent activator of A1 adenosine receptors than of A2A adenosine receptors”.

As to `CCNC(=O)[C@H]1O[C@@H](n2cnc3c(N)nc(C#CC[C@H]4CC[C@H](C(=O)OC)CC4)nc32)[C@H](O)[C@@H]1O` [DWH-146e], the “increase of coronary flow in the normal LCX coronary artery” value in data set [2] (0.3 μg/kg/min i.v. infusion) is on record as approximately 5 fold. Further, the “in vivo and ex vivo 99mTc-N-NOET images” value in data set [2] (critical LAD stenosis) is reported as “readily detectable large anteroseptal perfusion defects”. Besides, the “change in mean arterial pressure” value in data set [2] (dog, in vivo) is “no change”. The “Heart Rate” value in data set [2] (peak, 0.3 μg/kg/min i.v. infusion, baseline 109, stenosis 123) was determined as 143 BPM. The same molecule displayed a dP/dt in data set [2] (peak, 0.3 μg/kg/min i.v. infusion, baseline 2906, stenosis 2713) of 2606 mm Hg · sec-1. Moreover, in data set [2] (peak, 0.3 μg/kg/min i.v. infusion, normal artery, baseline 39, stenosis 38), the “LCX coronary flow” value is 185 mL/min. Besides, the “LAD Coronary Flow” value in data set [2] (peak, 0.3 μg/kg/min i.v. infusion, stenosed artery, baseline 39, stenosis 37) came out at 42 mL/min.

Turning to `CCNC(=O)[C@H]1O[C@@H](n2cnc3c(N)nc(C#CCC4CCC(COC(C)=O)CC4)nc32)[C@H](O)[C@@H]1O` (stereo partly drawn) [JMR-193e, [4-(3-{9[(4S,5S,2R,3R)-5-(N-ethylcarbamoyl)-3,4-dihydroxyoxolan-2-yl]-6-aminopurin-2-yl}prop-2-ynyl)cyclohexyl]methyl acetate], the LCX coronary flow in data set [3] (0.05 μg/kg/min x 10 min i.v. infusion) stood at 66 mL/min; in data set [3] (0.1 μg/kg/min x 10 min i.v. infusion), 75 mL/min; in data set [3] (0.2 μg/kg/min x 10 min i.v. infusion), 124 mL/min; in data set [3] (0.3 μg/kg/min x 10 min i.v. infusion), 153 mL/min; in data set [3] (0.4 μg/kg/min x 10 min i.v. infusion) it was 140 mL/min. In addition, the “time flow remained elevated more than 2x normal” value in data set [3] (bolus 0.3 μg/kg) lay within 3 to 4 min. Moreover, the “time of maximal LCX flow post-injection” value in data set [3] (bolus 0.3 μg/kg) is given as 2.3 min. In data set [3] (bolus 0.3 μg/kg, from 41 ml/min), the LCX flow stood at 140 mL/min. Also, in data set [3] (return of hemodynamics to baseline after terminating the infusion), the “pharmacodynamic t1/2” value amounted to 12 ± 2 min.

In turn, `Nc1ncnc2c1ncn2[C@@H]1O[C@H](CO)[C@@H](O)[C@H]1O` [adenosine] came in with an LCX flow in data set [3] (i.v. 250 μg/kg/min x 3 min) of 139 mL/min. The same molecule came in with an arterial pressure in data set [3] (i.v. 250 μg/kg/min x 3 min, from 109 mm Hg) of 80 mm Hg. For the same molecule, in data set [4], the A-V conduction block is 8%, the ECG changes is 9%, the chest pain is listed as 35% and the flushing is on record as 37%. For the same molecule, in data set [4], the headache is on record as 14%, the “patients with adverse side effects” value is recorded as 82% and the “shortness of breath or dyspnea” value was 35%.

For the molecule `OCCN(CCO)c1nc(N2CCCCC2)c2nc(N(CCO)CCO)nc(N3CCCCC3)c2n1` [dipyridamole], in data set [5], the “ST-segment changes on ECG” value is 8% and the headaches was 12%. For the same molecule, in data set [6], the “fall of mean systolic blood pressure” value is 14 mm Hg and the “patients with a >20% drop in systolic blood pressure” value is 11%.
